In brackets after ≈: the same amount, converted by molar mass.
How the values were obtained:
[1] = biological target: T1, Raf-1 (c-Raf) (Homo sapiens, UniProt P04049); experiment: Raf1 kinase cascade assay procedure; assay type: biochemical
T1 construct: Sf9 insect cell lysate containing full length 6his-tagged recombinant human c-Raf; host or cells: c-Raf: Sf9 insect cell lysate; MEK1 and MAPK: E. coli

[2] = test system: human adenocarcinoma cell line CaCo-2; experiment: Cell based screen for inhibitors of Raf kinase, quantitative assay; conditions: Caco-2, 96 h, four days incubation
Description: (§1) • Cell Lines: Human adenocarcinoma cell line LoVo which is known to be growth inhibited by low nM concentrations of a reference standard inhibitor of Ras and human adenocarcinoma cell line CaCo-2, which is known to be growth resistant to the same reference compound. • Cell Media : RPMI 1640 with 10% Fetal Bovine Serum supplemented with L-glutamine and Pennicilin/Streptomycin. • Compounds: Supplied usually as a 10 mM stock in 100% DMSO. • Normal Saline: 150 mM NaCl • Trichloroacetic Acid (TCA): 50% (w/v) in water • Sulforhodamine B (SRB): 0.4% (w/v) in 1% Acetic Acid • Tris Base: 10 mM in water
(§2) Cells are plated at 2000 cells per well for cell line LoVo and 1500 cells for cell line CaCo-2 in 96 well plates. Cells are plated in media (200 µl) and allowed to adhere overnight at 37°C. At 24 hours post plating, compounds are added directly at a volume of 0.5 µl. For the qualitative screen (compounds screened at 25 µM) compound is added directly to cells. For the quantitative screen, compound is first diluted in DMSO to generate concentrations of compound or reference standard of: 1, 5, 10 and 25 µM. It is advisable to make the dilutions in an identical 96 well plate so that compounds can be added using a multichannel micropipettor set at 0.5 µl. The cells are then incubated for four days after which the media is removed using a 12 well manifold by first tipping the plate forward at a 45 degree angle and then inserting the manifold in an upright orientation to prevent the tips of the manifold from disturbing cells at the bottom of the plate. 200 µl of normal saline is then added to each well using an 8 well multichannel pipettor, followed by the careful addition of 50 µl of 50% TCA. The plates are then incubated for 2 hours at 4°C, after which the supernatant is removed using the same technique as above and the plated washed twice with 200 µl water. The plates are then air dried and 50 µl of SRB stock solution is carefully added so that the entire bottom of each well is covered. This again can be used using an 8 well multichannel pipettor. The SRB is incubated with fixed cells for 15 minutes at room temperature after which the SRB is removed with the manifold as described above and the plates washed twice with 350 µl of 1% acetic acid per well each time. The plates are then air dried after which the bound SRB is released from protein by the addition of 200 µl of Tris base. Resolubilizing the SRB is aided by placing the plates on a rotator for 15-30 minutes. The absorbance of each well is determined at 550 or 562 nm using a microtiter plate reader.
(§3) Each compound or dilution thereof is performed in triplicate. Outliers are identified by visual inspection of the data. Each plate should have a "0" control (vehicle only).
(§4) Quantitative Assay: A standard curve is constructed by plotting the concentration of compound against the average absorbance calculated at that concentration. […] Multiple entries for a given compound indicate that it is tested multiple times.

[3] = test system: Human adenocarcinoma cell line LoVo; experiment: as above; conditions: 96 h, four days incubation
Description: as §1, §2, §3, §4

[4] = test system: A431; experiment: Inhibition of cancer cell growth as measured by cell number (Sulforhodamine B); assay type: cell-based; conditions: Homo sapiens, A-431; 48 hours exposure
Description: (§5) Human tumor cell lines are plated in 96-well plates (250 µl/well, 1-6 x 10^4 cells/ml) in RPMI 1640 medium, containing 5% FBS (Fetal Bovine Serum). Twenty four hours after plating, test compounds are added at various concentrations. After 48 hours exposure to test compounds, cells are fixed with trichloroacetic acid, and stained with Sulforhodamine B. After washing with trichloroacetic acid, bound dye is solubilized in 10 mM Tris base and optical density is determined using plate reader. Under conditions of the assay the optical density is proportional to the number of cells in the well. […] The test procedure is described in detail by Philip Skehan et. al, J. Natl. Canc. Inst., 82, 1107-1112 (1990). […] Information about some of the cell lines used in these test procedures is available from the American Type Tissue Collection: Cell Lines and Hybridomas, 1994 Reference Guide, 8th Edition.

[5] = test system: MDA-MB-435; experiment: as above; assay type: cell-based; conditions: Homo sapiens, 48 hours exposure
Description: as §5

[6] = test system: SK-BR3; experiment: as above; assay type: cell-based; conditions: Homo sapiens, SK-BR-3; 48 hours exposure
Description: as §5

T1 sequence (P04049 whole entry): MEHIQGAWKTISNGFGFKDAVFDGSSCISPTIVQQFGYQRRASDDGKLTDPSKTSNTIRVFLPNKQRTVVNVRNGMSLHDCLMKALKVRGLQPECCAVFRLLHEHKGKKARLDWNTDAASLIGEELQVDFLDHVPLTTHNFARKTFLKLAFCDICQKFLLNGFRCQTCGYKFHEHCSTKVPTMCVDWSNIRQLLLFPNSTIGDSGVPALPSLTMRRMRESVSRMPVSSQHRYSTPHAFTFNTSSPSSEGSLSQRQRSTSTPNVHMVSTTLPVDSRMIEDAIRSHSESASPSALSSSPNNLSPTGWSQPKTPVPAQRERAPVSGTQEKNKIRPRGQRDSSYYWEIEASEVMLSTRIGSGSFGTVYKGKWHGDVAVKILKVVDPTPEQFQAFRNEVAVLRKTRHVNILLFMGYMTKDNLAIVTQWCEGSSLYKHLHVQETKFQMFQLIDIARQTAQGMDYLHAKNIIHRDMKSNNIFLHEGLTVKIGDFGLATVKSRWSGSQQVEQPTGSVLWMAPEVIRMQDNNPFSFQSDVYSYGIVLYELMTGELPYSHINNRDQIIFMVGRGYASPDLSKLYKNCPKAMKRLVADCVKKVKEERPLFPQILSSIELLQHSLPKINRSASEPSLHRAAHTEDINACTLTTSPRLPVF

- IC50 [1]: 660 nM
- IC50 [2]: 6000 nM
- IC50 [3]: 430 nM
- IC50 [4]: 4.7 µg/mL (≈ 7.9 µM)
- IC50 [5]: 33.5 µg/mL (≈ 56.3 µM)
- IC50 [6]: 3.5 µg/mL (≈ 5.88 µM)
SMILES: COc1cc2cc3c(Nc4ccc(OCc5ccccc5)c(Cl)c4)c(C#N)cnc3cc2cc1OCCN1CCOCC1 [Example 218, 4-(4-Benzyloxy-3-chlorophenylamino)-7-methoxy-8-(2-morpholin-4-yl-ethoxy)benzo[g]quinoline-3-carbonitrile]

From patent EP1242382B1, “TRICYCLIC PROTEIN KINASE INHIBITORS” (Wyeth, priority 1999, dated 2001)
